{
  "source": "patent US9403866B2",
  "about": "“Compositions and methods for increasing telomerase activity” (Telomerase Activation Sciences, Inc., priority 2009, dated 2016)",
  "key": {"[1]": {"experiment": "Plasma levels and bioavailability in mice", "assay_type": "in vivo, male C57BL/6 mice", "conditions": "male, C57BL/6, mouse, 10 mg/kg, 2% EtOH/98% water, read-out: Bioavailability % F", "procedure": "The plasma levels of a compound following a single intravenous, oral, intra-peritoneal, or sub-cutaneous administration in male C57BL/6 mice was determined. Plasma samples were collected and used to determine the plasma concentration of the compound and metabolites. In addition tissue samples, including whisker samples, and peripheral blood mononuclear cells (PBMC) cells were collected for telomerase activity analysis.\n(§1) C57BL16 mice were divided into treatment groups. The mice were provided ad libitum SLAC-MO1 #W080208 (Shanghai Laboratories Animal Center, Shanghai, China) throughout the in-life portion of the study with the exception of the overnight fasting period prior to oral dosing. Water was available ad libitum.\n(§2) Body weights were taken on the day of dose administration. Dose volume was determined based on individual body weight taken on day of dosing.\nBlood samples (approximately 300 μL) were collected via cardiac puncture or via retro-orbital puncture after anesthesia into tubes containing K2-EDTA anticoagulant and 1 mg/ml NaF at the various time points after dosing. Blood was stored on ice and then plasma separated via centrifugation (8000 rpm×6 minutes). The plasma was stored at […] until LC-MS/MS analysis."}, "[2]": {"experiment": "Plasma levels and bioavailability in rats", "conditions": "male, Sprague Dawley, rat, in vivo, po, 10 mg/kg", "procedure": "The plasma levels of a compound following a single intravenous and oral administration in carotid artery-cannulated male Sprague Dawley rats was determined. Plasma samples were collected and used to determine the plasma concentration of the compound and metabolites. In addition tissue samples, including whisker samples and PBMC cells were collected for telomerase activity analysis.\nas §1, with “Carotid artery-cannulated male Sprague Dawley rats” for “C57BL16 mice”, “groups according to Table 6.” for “groups.”, “rats” for “mice”, “# YY080208” for “#W080208”\nThe compounds were dissolved in 2% EtOH/98% water to yield a final concentration of 2.5 mg/ml and 1 mg/ml for both intravenous and oral administration, respectively. The concentration of each compound was confirmed by HPLC analysis.\nas §2\nBlood samples (approximately 250 μL) were collected via cannulae into tubes containing K2-EDTA anticoagulant and 1 mg/ml NaF at the various time points. Blood was stored on ice and then plasma separated via centrifugation (8000 rpm×6 minutes). The plasma was stored at […] until LC-MS/MS analysis.\nPercentage of bioavailability was calculated."}, "huCD34+ cells": {"tested_on": "huCD34+ cells", "experiment": "Colony formation assay of huCD34+ cells", "assay_type": "cell-based, human", "conditions": "100 nM, 14 days", "procedure": "Human hematopoietic progenitor CD34+ cells (healthy donor) were plated into a standard colony formation assay in the presence of compound 4 (100 nM), vehicle (0.1% DMSO), or nothing. After 14 days, hematopoietic colonies were enumerated (CFU-E, […], CFU-GM, and CFU-GEMM). The plates containing compound 4 had 17% more colony forming units than vehicle alone. (Total colony counts were: untreated, 106.5; vehicle-treated, 103.5; compound 4-treated, 121.5)"}, "[3]": {"tested_on": "wild-type mouse lineage-depleted bone marrow cells", "experiment": "Colony formation assay of wild-type mouse lineage-depleted bone marrow cells", "assay_type": "cell-based", "conditions": "12 days", "procedure": "Mouse bone marrow-derived lineage-depleted cells (enriched for hematopoietic stem and progenitor cells but not a pure population) were obtained. Wild-type mouse lineage-depleted bone marrow cells from two separate mice were plated into a standard colony formation assay in the presence of compound 4 (100 nM and 500 nM), vehicle (0.1% DMSO), or nothing. After 12 days, hematopoietic colonies were enumerated (BFU-E, CFU-GM, and CFU-GEMM)."}, "[4]": {"tested_on": "mTERT heterozygous mouse lineage-depleted bone marrow cells", "experiment": "Colony formation assay of mTERT heterozygous mouse lineage-depleted bone marrow cells", "assay_type": "cell-based", "conditions": "12 days", "procedure": "mTERT heterozygous mouse lineage-depleted bone marrow cells were plated into a standard colony formation assay in the presence of compound 4 (100 nm and 500 nM), vehicle (0.1% DMSO), or nothing. After 12 days, hematopoietic colonies were enumerated (BFU-E, CFU-GM, and CFU-GEMM). Total colony counts were: untreated, 67; vehicle-treated, 64; 100 nM compound 4, 68; and 500 nM compound 4, 77."}, "Matrigel plugs": {"tested_on": "Matrigel plugs", "experiment": "Administration to BALB/c mice: total RNA and capillary density in Matrigel plugs", "assay_type": "in vivo", "conditions": "10 mg/kg/day PO (BID)", "procedure": "BALB/c mice (2-3 months) were dosed with compound 4 in 2% ethanol at 10 mg/kg/day PO (BID). Mice were pre-dosed for 1 day (Day −1). Matrigel™ (BDBiosciences, California) was injected subcutaneously in the abdomen on Day 0, and the Matrigel™ plugs were harvested on Day 12.\nTotal RNA, which reflects cell number, was increased 1.6-fold (p<0.2) n=5/group in Matrigel™ plugs after treatment with compound 4.\nThe other half of the Matrigel™ plug was used for histology and CD31 immunostaining to analyze capillary density (CD31 is a marker for endothelial cells, which line the capillaries). A 1.3-fold increase in capillary density in (CD-31 immuno staining) (p<0.5) n=5/group was observed after treatment with compound 4."}, "SAECs [5]": {"tested_on": "SAECs", "experiment": "Long-term replicative capacity of SAECs in continuous culture", "assay_type": "cell-based, human", "conditions": "0.1 μM, 60 days continuous culture", "procedure": "SAECs were treated continuously with 0.1 μM of compound 4 in a final concentration of 0.004% ethanol for 60 days in continuous culture. Compound 4 increased the long-term replicative capacity of SAECs by about 2 population doublings (4× increase in calculated cell number)."}, "SAECs [6]": {"tested_on": "SAECs", "experiment": "Alamar Blue Proliferation Assay in SAECs", "assay_type": "cell-based, human", "conditions": "3 days, 1% DMSO, different concentrations", "procedure": "Human SAECs or human fibroblasts were grown in the presence of different concentrations of compound 4 in a final concentration of 1% DMSO in the medium. After 3 days the cells were harvested and proliferation was measured using the Alamar Blue Proliferation Assay."}},
  "note": "Like-named read-outs stand apart in the source and are kept apart here.",
  "data": [
    {"smiles": "CC(C)C(N)C(=O)OC1CCC23CC24CCC2(C)C(C5(C)CCC(C(C)(C)O)O5)C(O)CC2(C)C4CC(O)C3C1(C)C", "note": "(stereo not drawn) [Compound 4, 2-(L)-Amino-3-methyl-butyric acid 6α,16β-dihydroxy-17-[5-(1-hydroxy-1-methyl-ethyl)-2-methyl-tetrahydro-furan-2-yl]-4,4,13,14-tetramethyl-tetradecahydro-cyclopropa[9,10]cyclopenta[a]phenanthren-3β-yl ester]", "values": [
      {"measurement": "bioavailability", "setting": "[1]; PO", "result": 48, "unit": "%"},
      {"measurement": "bioavailability", "setting": "[1]; SC", "result": 66, "unit": "%"},
      {"measurement": "Bioavailability % F", "setting": "[2]", "result": 36, "unit": "%"},
      {"measurement": "BFU-E colonies", "setting": "huCD34+ cells", "result": 25.5},
      {"measurement": "CFU-E colonies", "setting": "huCD34+ cells", "result": 11},
      {"measurement": "CFU-GEMM colonies", "setting": "huCD34+ cells", "result": 5},
      {"measurement": "CFU-GM colonies", "setting": "huCD34+ cells", "result": 80},
      {"measurement": "Total colony counts", "setting": "huCD34+ cells", "result": 121.5},
      {"measurement": "more colony forming units than vehicle alone", "setting": "huCD34+ cells", "result": 17, "unit": "%"},
      {"measurement": "BFU-E colonies", "setting": "[3]; Mouse 1, 100 nM", "result": 50},
      {"measurement": "CFU-GEMM colonies", "setting": "[3]; Mouse 1, 100 nM", "result": 0},
      {"measurement": "CFU-GM colonies", "setting": "[3]; Mouse 1, 100 nM", "result": 111},
      {"measurement": "Total colony counts", "setting": "[3]; Mouse 1, 100 nM", "result": 161},
      {"measurement": "BFU-E colonies", "setting": "[3]; Mouse 1, 500 nM", "result": 38},
      {"measurement": "CFU-GEMM colonies", "setting": "[3]; Mouse 1, 500 nM", "result": 1},
      {"measurement": "CFU-GM colonies", "setting": "[3]; Mouse 1, 500 nM", "result": 124},
      {"measurement": "Total colony counts", "setting": "[3]; Mouse 1, 500 nM", "result": 162},
      {"measurement": "BFU-E colonies", "setting": "[3]; Mouse 2, 100 nM", "result": 31},
      {"measurement": "CFU-GEMM colonies", "setting": "[3]; Mouse 2, 100 nM", "result": 1},
      {"measurement": "CFU-GM colonies", "setting": "[3]; Mouse 2, 100 nM", "result": 90},
      {"measurement": "Total colony counts", "setting": "[3]; Mouse 2, 100 nM", "result": 121},
      {"measurement": "BFU-E colonies", "setting": "[3]; Mouse 2, 500 nM", "result": 29},
      {"measurement": "CFU-GEMM colonies", "setting": "[3]; Mouse 2, 500 nM", "result": 2},
      {"measurement": "CFU-GM colonies", "setting": "[3]; Mouse 2, 500 nM", "result": 98},
      {"measurement": "Total colony counts", "setting": "[3]; Mouse 2, 500 nM", "result": 129},
      {"measurement": "BFU-E colonies", "setting": "[4]; 100 nM", "result": 22},
      {"measurement": "CFU-E colonies", "setting": "[4]; 100 nM", "result": 43},
      {"measurement": "CFU-GEMM colonies", "setting": "[4]; 100 nM", "result": 3},
      {"measurement": "Total colony counts", "setting": "[4]; 100 nM", "result": 68},
      {"measurement": "BFU-E colonies", "setting": "[4]; 500 nM", "result": 27},
      {"measurement": "CFU-E colonies", "setting": "[4]; 500 nM", "result": 48},
      {"measurement": "CFU-GEMM colonies", "setting": "[4]; 500 nM", "result": 1},
      {"measurement": "Total colony counts", "setting": "[4]; 500 nM", "result": 77},
      {"measurement": "Total RNA (reflects cell number) increase in Matrigel plugs", "setting": "Matrigel plugs; Day 12, p<0.2", "result": 1.6, "unit": "fold"},
      {"measurement": "increase in capillary density (CD-31 immuno staining)", "setting": "Matrigel plugs; Day 12, p<0.5", "result": 1.3, "unit": "fold"},
      {"measurement": "increase in calculated cell number", "setting": "SAECs [5]", "result": 4, "unit": "×"},
      {"measurement": "increase of long-term replicative capacity", "setting": "SAECs [5]; 0.004% ethanol", "result": "about 2 population doublings"},
      {"measurement": "increased proliferation", "setting": "SAECs [6]", "result": "about 50%"}
    ]}
  ]
}
